From patent US8785503B2, “Biphenyl compound or pharmaceutically acceptable salt thereof, method for preparing novel biphenyl compound or pharmaceutically acceptable salt thereof, and pharmaceutical composition containing same as active ingredient for preventing or treating diabetes complications” (Korea Institute of Oriental Medicine, priority 2010, dated 2014) come the findings set out here.

Each structure is given as a SMILES string.

The test system of experiment [1] is AGE formation. The experiment can be described thus: Inhibitory effect on AGE formation (BSA with fructose and glucose, fluorescence Ex 350 nm / Em 450 nm). Type of experiment: biochemical, bovine. The note with it: for Inhibitory effect / IC50: 7 days. The protocol: To determine the inhibitory effect of the compound of Chemical Formula 1 according to the present invention on formation of AGE, which are an indicator of diabetic complications and indicator of treatment efficiency assessment, the following experiment was carried out.
Bovine serum albumin (BSA) was used as a protein and the degree of binding to fructose and glucose was used as an indicator. Aminoguanidine, which is known to have very excellent inhibitory effect on AGE, was used as a positive control.
Bovine serum albumin (hereinafter, referred to as BSA; Sigma, U.S.A.) was used as a protein source. BSA was added to 50 mM phosphate buffer (pH 7.4) to be a concentration of 10 mg/mL. A mixed solution of 0.2 M fructose and 0.2 M glucose was used as a sugar source. The mixed solution of fructose and glucose was added to the prepared BSA solution. 2.5, 5 and 10 μg/mL of the compound of Chemical Formula 1 obtained from Example 1 were prepared (All compounds were dissolved in DMSO and 15% tween 80 was added thereto. Total amount of DMSO was 0.2%). The compound was added to the mixed solution of BSA and sugars and the mixture was cultured at 37° C. for 7 days.
At this time, 0.02% sodium azide and anticomycotics were added as an antibacterial agent and antifungal agents. A control was the cultured mixture of BSA and sugars. Blanks for the control and experimental group were those that were prepared but non-cultured. Aminoguanidine was used for a positive control, the indicator for comparing the effectiveness. All cultures were prepared in quadruplicate to avoid error as much as possible.
After 7 days, the amount of AGE produced from each culture was analyzed and the result was shown. AGE has fluorescence, brown color, and a physicochemical property capable of cross-linking and has ligands which cell membrane receptors can recognize. The amount of AGE having those characteristics was measured by a microplate reader (Excitation: 350 nm, Emission: 450 nm) to analyze the inhibition degree of formation (Vinson, J. A. et al., J. Nutr. Biochem., 7: 659-663, 1996), and the inhibition rate of formation was calculated using the following Equation 1.
Aminoguanidine was used for the positive control. Aminoguanidine was dissolved in distilled water and 37, 55.6. and 74 μg/mL of aminoguanidine were cultured for 7 days as described above. After 7 days, the amount of AGE produced from culture was measured by a microplate reader (Excitation: 350 nm, Emission: 450 nm).

The subject of experiment [2] is retinal angiogenesis. The experiment is described as follows: Oxygen induced retinopathy (OIR) mouse model: FITC-dextran, isolectin-B4 staining, retina Western blot. Type of experiment: in vivo, mice (C58BL/6). The protocol: To determine the inhibitory effect of the compound of Chemical Formula 1 of the present invention on retinal angiogenesis, the following experiment was carried out. Experimental animals were mice born after crossbreeding 7-8-week-old C58BL/6. On 7th day after birth, mice (P7) were placed into an oxygen chamber and 75% of the oxygen concentration was maintained in the chamber for five days (P7-P11). 12-hour cyclic illumination was maintained in the animal room. Temperature was maintained at 24° C. Animals were allowed to access freely to feeds and drinking water. At an ambient atmosphere, the drug was intraperitoneally injected each day for five days (P12-P16). On 17th day after birth, 30 mg/kg of Zoletil (Zoletil 50, Virbac) and 10 mg/kg of Rompun (Bayer Korea) were mixed at a ratio of 3:2 and 10-fold diluted in physiological saline and 50 μL was intraperitoneally injected to anesthetize animals. After laparotomy, 100 μL of 50 mg/mL of FITC-dextran (Sigma, St. Louis, Mo., USA) dissolved in PBS was injected to a heart. When the heart stopped, eyes were removed. Retina was separated from one eye and stored at −70° C. The other eye was fixed using 4% paraformaldehyde for 10 min. After separation of retina, thin fixed retina slide was prepared and observed using a fluorescence microscope (BX51, Olympus, Japan). Retina was fixed in 4% paraformaldehyde for 3 hours, and washed with PBS, and then agitated in PBS containing triton X-100 and 1% bovine serum albumin for 3 hours. Retina was washed again and 1 mg/mL of isolectin-B4 (L2140, Sigma) was diluted in PBS to 1:50 and retina was agitated with isolectin-B4 at 4° C. for overnight. After washing the retina with PBS containing 0.05% Tween 20 for 2 hours, streptavidin-TRITC was diluted to 1:500 and allowed to react with retina at 37° C. for 4 hours. Then, retina was washed with PBS for 30 min and observed using a fluorescence microscope (BX51, Olympus, Japan). Retina stored at −70° C. was homogenized with homogenization buffer (pH 7.6). Protein quantification was carried out by Lowry's principle and SDS-PAGE electrophoresis was carried out for each 30 μg. Migrated proteins in a gel were immobilized onto a nitrocellulose membrane and transferred to the membrane at 100 V, 250 mA for 1.5 hours. Antibodies to be quantified were immunoabsorbed to the adsorbed proteins and color was developed using an enhanced-chemiluminescence (ECL) solution. Protein expression was determined by measuring the density with Scion image analysis program.

The subject of experiment [3] is diabetic retinopathy-induced retina. The experiment is described as follows: Diabetic retinopathy-induced (intravitreal BSA-AGE) rat model: FITC-dextran retinal vessels, retina Western blot. The class given is in vivo, Sprague Dawley (SD) white rats. The protocol: To determine the therapeutic effect of the compound of the present invention on retina, to which diabetic retinopathy, one example of diabetic complications, was induced, the following experiment was carried out. Sprague Dawley (SD) white rats (6 weeks) were obtained from Daehan Biolink Co. and acclimated for 7 days to the animal room. SD rats were divided into normal group, diabetic group, experimental group, and control group. The animal room was maintained under the following conditions: temperature 23° C.; humidity 40-60%; and 12 h light-dark cycle. Feeds for experimental animals and drinking water were provided without limitation. All experiments were carried out in accordance with Standard Operation Procedures (SOP) by Institutional Animal Care and Use Committee (IACUC). SD rats were anesthetized by an intraperitoneal injection of 5 mg/mL of Zoletil and 5 mg/mL of Rompun. 20 mg/mL of BSA-AGE alone for normal group and diabetic group and both 20 mg/mL of BSA-AGE and a drug for experimental group and control group were injected via Hamilton syringes and needles to eyes. At this time, the needle was introduced into the sclera, 3 mm away from the corneal limbus, and after confirming that the end of the needle was located in the vitreous cavity, administration was carried out. After 24 hours, eyes were removed. The compound of Chemical Formula 1 obtained from Example 1 was used for the drug. A mixture of the same amount of Zoletil and Rompun was intraperitoneally injected to anesthetize animals. Hearts were obtained by opening abdominal cavity and thoracic cavity. 1 mL of fluorescent isothiocyanate dextran (FITC-dextran, Sigma, St. Louis, Mo., USA) which was prepared by dissolving […] of FITC-dextran in 1 mL of sterile physiological saline was injected into the left ventricle. After 10 minutes, eyes were removed and separated from eyecups. Left eyes were incised in four directions and placed onto a slide glass. After mounting, left eyes were observed by a fluorescent microscope. For right eyes, only retina was separated from the eye and rapidly frozen in liquid nitrogen and stored at −70° C. To prepare BSA-AGE, 30 mM glucose (Sigma, St. Louis, Mo., USA) and 20 mg/mL of BSA (Roche, Germany) were added to sodium phosphate buffer (100 mM, pH 7.4) and cultured at 37° C. for 50 days. After 50 days, BSA-AGE was injected into PD-10 column and the remaining glucose was removed by dialysis and only pure BSA-AGE was obtained. Purified BSA-AGE was aliquoted and stored at −70° C. to use. Retina stored at −70° C. was homogenized with homogenization buffer (pH 7.6). Protein quantification was carried out by Lowry's principle and SDS-PAGE electrophoresis was carried out for each […]. Migrated proteins in a gel were immobilized onto a nitrocellulose membrane and transferred to the membrane at 100 V, 250 mA for 1.5 hours. Antibodies to be quantified were immunoabsorbed to the adsorbed proteins and color was developed using an enhanced-chemiluminescence (ECL) solution. Protein expression was determined by measuring the density with Scion image analysis program.

The mark [4] stands for this setting: 100 mg/kg, intraperitoneal P12-P16.
The mark [5] stands for this setting: across doses, intraperitoneal P12-P16.
[6] abbreviates: across doses, vs. diabetic group.

As a reminder, the IC50 is the point on the concentration scale where inhibition reaches its midpoint. For the molecule `N=C(N)NN` [Aminoguanidine, reference compound], the Inhibitory effect in experiment [1] (37 μg/mL) is 44.53 ± 2.33%; in experiment [1] (55.5 μg/mL), 49.97 ± 0.59%; in experiment [1] (74 μg/mL) it was 56.37 ± 0.67%. In experiment [1], this molecule had a half-maximal inhibitory concentration (IC50) of 1060 ± 57.2 µM.
For `COc1cc(O)cc(-c2ccc(O)c(O)c2)c1` [Compound of Chemical Formula 1], the “angiogenesis (isolectin-B4 staining)” value in experiment [2] (setting [4]) is given as “significantly inhibited”. For the same molecule, the “avascular area (FITC-dextran)” value in experiment [2] (setting [4]) is “significantly reduced”. In addition, the “increase in length by vascular tortuosity” value in experiment [2] (setting [4]) is reported as “reduced”. The “Changes in the angiogenic growth factor (retina, Western blot)” value in experiment [2] (100 mg/kg, p<0.05 vs. OIR) was “significant decrease”; in experiment [2] (across doses, vs. OIR group) it was “dose-dependent decrease”; in experiment [3] (100 μM, p<0.05 vs. AGE-BSA), “significant decrease”; in experiment [3] (150 μM, p<0.05 vs. AGE-BSA) it was “significant decrease”; in experiment [3] (setting [6]), “dose-dependent decrease”. In addition, the “neovascular tufts (isolectin-B4 staining)” value in experiment [2] (setting [5]) was “ameliorated in a dose-dependent manner”. The “vascular tortuosity (FITC-dextran)” value in experiment [2] (setting [5]) was “ameliorated in a dose-dependent manner”. The “Changes in occludin (retina, Western blot)” value in experiment [3] (100 μM, p<0.05 vs. AGE-BSA) is recorded as “significant increase”; in experiment [3] (150 μM, p<0.05 vs. AGE-BSA), “significant increase”; in experiment [3] (setting [6]) it was “dose-dependent increase”. Also, the Inhibitory effect in experiment [1] (2.5 μg/mL) was 4.25 ± 5.38%; in experiment [1] (5 μg/mL), 17.16 ± 5.86%; in experiment [1] (10 μg/mL), 54.17 ± 6.02%. The same molecule gave an IC50 in experiment [1] of 41 ± 3.78 µM. Further, in experiment [1] (ratio of IC50 values, greater than control), the “inhibitory effect on AGE formation relative to aminoguanidine” value amounted to 26 times.
